pEC50: −log10 of the molar value. Where two headings read alike, the source gives them in different places. Numbered stars: 1 amine (or outer) side, 2 acyl side, 3 side chain; on linkers, the order of the positions; unused ones are H or OH. Square brackets hold non-standard residues; d marks the D form. Side chains are listed from the residue outwards. Peptide text beside a SMILES is read from it. * marks the point of attachment. C20 diacid = O=C(O)CCCCCCCCCCCCCCCCCCC(=O)*; Phe(4-CH2NH2) = NCc1ccc(C[C@H](N)C(=O)O)cc1; C18 diacid = O=C(O)CCCCCCCCCCCCCCCCC(=O)*; γGlu = O=C(O)[C@H](CCC(=O)[*:2])N[*:1]; Met(O2) = CS(=O)(=O)CC[C@H](N)C(=O)O; αMeD = C[C@](N)(CC(=O)O)C(=O)O; αMeS = C[C@](N)(CO)C(=O)O; AEEA = NCCOCCOCC(=O)O; Aib = CC(C)(N)C(=O)O
Assays:
[1] = biological target: T1, human GCGR (Homo sapiens, UniProt P47871); test: cAMP activity assay at the Glucagon receptor (GCGR); format: cell-based; conditions: for hGCGR/hGLP1R (hTone): ratio of GCGR EC50 to GLP1R EC50
T1 construct: expressed in transfected cells; growth medium holds Blasticidin and Hygromycin
T1 sequence (P47871 26-477): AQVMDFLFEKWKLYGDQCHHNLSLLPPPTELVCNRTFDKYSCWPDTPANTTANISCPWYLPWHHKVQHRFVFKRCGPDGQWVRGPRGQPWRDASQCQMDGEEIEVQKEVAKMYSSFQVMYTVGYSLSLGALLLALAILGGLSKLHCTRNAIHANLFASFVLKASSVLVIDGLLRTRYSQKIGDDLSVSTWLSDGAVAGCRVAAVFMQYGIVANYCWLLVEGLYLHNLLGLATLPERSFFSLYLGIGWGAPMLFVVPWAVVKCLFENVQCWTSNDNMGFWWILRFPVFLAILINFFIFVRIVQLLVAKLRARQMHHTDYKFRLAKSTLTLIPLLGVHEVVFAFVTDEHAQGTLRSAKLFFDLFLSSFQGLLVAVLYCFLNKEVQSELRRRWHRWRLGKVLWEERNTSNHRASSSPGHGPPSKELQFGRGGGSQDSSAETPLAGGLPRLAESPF
Method in brief: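 Peptides serially diluted from DMSO (10 points) and added to frozen-stock cells bearing human GLP1R (10,000 cells/well) or GCGR (30,000 cells/well), 1 h at RT, dark. EC50 by four-parameter logistic fit of HitHunter cAMPXS luminescence, read following overnight RT incubation.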

[2] = biological target: T2, human GLP1R (Homo sapiens, UniProt P43220); test: cAMP activity assay at the GLP-1 receptor (GLP1R); format: cell-based
T2 construct: expressed in transfected cells; growth medium holds Blasticidin and Hygromycin
T2 sequence (P43220 24-463): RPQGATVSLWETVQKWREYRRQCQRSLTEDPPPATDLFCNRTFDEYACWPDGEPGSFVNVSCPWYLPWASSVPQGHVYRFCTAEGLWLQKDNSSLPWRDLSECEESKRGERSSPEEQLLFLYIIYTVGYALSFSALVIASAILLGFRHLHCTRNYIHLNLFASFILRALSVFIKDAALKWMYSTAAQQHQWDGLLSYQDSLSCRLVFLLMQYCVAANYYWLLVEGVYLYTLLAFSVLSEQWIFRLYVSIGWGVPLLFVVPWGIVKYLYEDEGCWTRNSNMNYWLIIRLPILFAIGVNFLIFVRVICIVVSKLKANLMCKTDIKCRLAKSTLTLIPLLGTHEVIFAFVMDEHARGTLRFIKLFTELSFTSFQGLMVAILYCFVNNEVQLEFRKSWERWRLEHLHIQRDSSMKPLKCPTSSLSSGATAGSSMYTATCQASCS
Procedure: Activity of the peptides at the Glucagon receptor (GCGR) and GLP-1 receptor (GLP1R) was measured in a cAMP activity assay.
GCG/GLP-1 receptor co-agonist peptides were dissolved in 100% DMSO (dimethyl sulfoxide) and serially diluted to generate 10 point titrations. The peptide solutions were then transferred into 384-well assay plates (150 nL/well). Assay ready frozen cells expressing human GLP1R or human GCGR were suspended in growth media consisting of DMEM medium (GIBCO®), 10% FBS (GIBCO®), 1×NEAA(GIBCO®), 1×P/S (GIBCO®), 10 ug/mL Blasticidin (GIBCO®) and 200 μg/mL Hygromycin (GIBCO®). […] The cell suspensions (15 μL) were then added to the assay plates containing the peptide solutions (30,000 cells/well for human GCGR; 10,000 cells/well for human GLP1R). The cells were incubated for 1 hour at room temperature in the dark. Production of cAMP was determined using HitHunter™ cAMPXS kits (DiscoverX) following manufacturer protocol. The plates were incubated for overnight at room temperature in the dark. Luminescence was measured using an EnVision Multilabel plate reader (Perkin Elmer). Native GLP-1 and Glucagon (Bachem) are used as control peptides. EC50 values were calculated using uses a 4 parameter logistic fit based on the Levenberg-Marquardt algorithm.

[3] = cells expressing human GCGR, cAMP production, buffer with or without 20% human serum (not stated which), read-out: GCGR EC50 human
[4] = cells expressing human GLP1R, cAMP production, buffer with or without 20% human serum (not stated which), read-out: GLP1R EC50 human
[5] = summary statement: EC50 at each of the glucagon and GLP-1 receptors, read-out: EC50 at the glucagon receptor
[6] = summary statement: EC50 at each of the glucagon and GLP-1 receptors, read-out: EC50 at the GLP-1 receptor

pEC50 [1, 3] | hGCGR/hGLP1R (hTone) [1] | pEC50 [2, 4] | pEC50 [1, 5] | pEC50 [2, 6] | SMILES
 | 1.6 |  | > 8.30 | > 8.30 | CC(C)C[C@H](NC(=O)[C@H](Cc1ccc(O)cc1)NC(=O)[C@H](CCCCN)NC(=O)[C@H](CO)NC(=O)[C@H](Cc1ccc(O)cc1)NC(=O)[C@H](CC(=O)O)NC(=O)[C@H](CO)NC(=O)[C@@H](NC(=O)[C@H](Cc1ccccc1)NC(=O)[C@@H](NC(=O)CNC(=O)[C@H](CCC(N)=O)NC(=O)C(C)(C)NC(=O)[C@@H](N)Cc1c[nH]cn1)[C@@H](C)O)[C@@H](C)O)C(=O)N[C@@H](CC(=O)O)C(=O)N[C@@H](C)C(=O)N[C@@H](CCCNC(=N)N)C(=O)N[C@@H](C)C(=O)N[C@@H](C)C(=O)N[C@@H](CCC(N)=O)C(=O)N[C@@H](Cc1ccc(CNC(=O)COCCOCCNC(=O)COCCOCCNC(=O)CC[C@H](NC(=O)CCCCCCCCCCCCCCCCC(=O)O)C(=O)O)cc1)C(=O)N[C@@H](Cc1ccccc1)C(=O)N[C@H](C(=O)N[C@@H](CCC(N)=O)C(=O)N[C@@H](Cc1c[nH]c2ccccc12)C(=O)N[C@@H](CC(C)C)C(=O)N[C@@H](CCS(C)(=O)=O)C(=O)N[C@@](C)(CC(=O)O)C(=O)N[C@H](C(N)=O)[C@@H](C)O)C(C)C [TP634] (H-H[Aib]QGTFTSDYSKYLDARAAQ[Phe(4-CH2NH2)]([AEEA-AEEA-γGlu-C18 diacid])FVQWL[Met(O2)][αMeD]T-NH2)
 | 0.9 |  |  |  | CC(C)C[C@H](NC(=O)[C@H](Cc1ccc(O)cc1)NC(=O)[C@H](CCCCN)NC(=O)[C@H](CO)NC(=O)[C@H](Cc1ccc(O)cc1)NC(=O)[C@H](CC(=O)O)NC(=O)[C@H](CO)NC(=O)[C@@H](NC(=O)[C@H](Cc1ccccc1)NC(=O)[C@@H](NC(=O)CNC(=O)[C@H](CCC(N)=O)NC(=O)C(C)(C)NC(=O)[C@@H](N)Cc1c[nH]cn1)[C@@H](C)O)[C@@H](C)O)C(=O)N[C@@H](CC(=O)O)C(=O)N[C@@H](C)C(=O)N[C@@H](CCCNC(=N)N)C(=O)N[C@@H](C)C(=O)N[C@@H](C)C(=O)N[C@@H](CCC(N)=O)C(=O)N[C@@H](Cc1ccc(CNC(=O)COCCOCCNC(=O)COCCOCCNC(=O)CC[C@H](NC(=O)CCCCCCCCCCCCCCCCC(=O)O)C(=O)O)cc1)C(=O)N[C@@H](Cc1ccccc1)C(=O)N[C@H](C(=O)N[C@@H](CCC(N)=O)C(=O)N[C@@H](Cc1c[nH]c2ccccc12)C(=O)N[C@@H](CC(C)C)C(=O)N[C@@H](CC(C)C)C(=O)N[C@@](C)(CC(=O)O)C(=O)N[C@H](C(N)=O)[C@@H](C)O)C(C)C [TP609] (H-H[Aib]QGTFTSDYSKYLDARAAQ[Phe(4-CH2NH2)]([AEEA-AEEA-γGlu-C18 diacid])FVQWLL[αMeD]T-NH2; N-terminus assumed)
 | 2.3 |  |  |  | CC(C)C[C@H](NC(=O)[C@H](Cc1ccc(O)cc1)NC(=O)[C@H](CCCCN)NC(=O)[C@H](CO)NC(=O)[C@H](Cc1ccc(O)cc1)NC(=O)[C@H](CC(=O)O)NC(=O)[C@H](CO)NC(=O)[C@@H](NC(=O)[C@H](Cc1ccccc1)NC(=O)[C@@H](NC(=O)CNC(=O)[C@H](CCC(N)=O)NC(=O)C(C)(C)NC(=O)[C@@H](N)Cc1c[nH]cn1)[C@@H](C)O)[C@@H](C)O)C(=O)N[C@@H](CC(=O)O)C(=O)N[C@@H](C)C(=O)N[C@@H](CCCNC(=N)N)C(=O)N[C@@H](C)C(=O)N[C@@H](C)C(=O)N[C@@H](CCC(N)=O)C(=O)N[C@@H](CC(=O)O)C(=O)N[C@@H](Cc1ccccc1)C(=O)N[C@H](C(=O)N[C@@H](CCC(N)=O)C(=O)N[C@@H](Cc1c[nH]c2ccccc12)C(=O)N[C@@H](CC(C)C)C(=O)N[C@@H](CCS(C)(=O)=O)C(=O)N[C@@H](Cc1ccc(CNC(=O)COCCOCCNC(=O)COCCOCCNC(=O)CC[C@H](NC(=O)CCCCCCCCCCCCCCCCC(=O)O)C(=O)O)cc1)C(=O)N[C@H](C(N)=O)[C@@H](C)O)C(C)C [TP604] (H-H[Aib]QGTFTSDYSKYLDARAAQDFVQWL[Met(O2)][Phe(4-CH2NH2)]([AEEA-AEEA-γGlu-C18 diacid])T-NH2; N-terminus assumed)

More lines, now with the values behind:

SMILES | pEC50 [1, 3] | hGCGR/hGLP1R (hTone) [1] | pEC50 [2, 4] | pEC50 [1, 5] | pEC50 [2, 6]
CC(C)C[C@H](NC(=O)[C@H](Cc1c[nH]c2ccccc12)NC(=O)[C@H](CCC(N)=O)NC(=O)[C@@H](NC(=O)[C@H](Cc1ccccc1)NC(=O)[C@H](CC(=O)O)NC(=O)[C@H](CCCCNC(=O)COCCOCCNC(=O)COCCOCCNC(=O)CC[C@H](NC(=O)CCCCCCCCCCCCCCCCCCC(=O)O)C(=O)O)NC(=O)[C@H](C)NC(=O)[C@H](C)NC(=O)[C@H](CCCNC(=N)N)NC(=O)C(C)(C)NC(=O)[C@H](CC(=O)O)NC(=O)[C@H](CC(C)C)NC(=O)[C@H](Cc1ccc(O)cc1)NC(=O)[C@H](CCCCN)NC(=O)[C@H](CO)NC(=O)[C@H](Cc1ccc(O)cc1)NC(=O)[C@H](CC(=O)O)NC(=O)[C@H](CO)NC(=O)[C@@H](NC(=O)[C@H](Cc1ccccc1)NC(=O)[C@@H](NC(=O)CNC(=O)[C@H](CCC(N)=O)NC(=O)[C@](C)(CO)NC(=O)[C@@H](N)Cc1c[nH]cn1)[C@@H](C)O)[C@@H](C)O)C(C)C)C(=O)N[C@@H](CCS(C)(=O)=O)C(=O)N[C@@H](CC(=O)O)C(=O)N[C@H](C(N)=O)[C@@H](C)O [TP593] (H-H[αMeS]QGTFTSDYSKYLD[Aib]RAAK([AEEA-AEEA-γGlu-C20 diacid])DFVQWL[Met(O2)]DT-NH2) | 9.14 | <0.15 | 8.31 |  | 
CC(C)C[C@H](NC(=O)[C@H](Cc1ccc(O)cc1)NC(=O)[C@H](CCCCN)NC(=O)[C@H](CO)NC(=O)[C@H](Cc1ccc(O)cc1)NC(=O)[C@H](CC(=O)O)NC(=O)[C@H](CO)NC(=O)[C@H](CC(C)C)NC(=O)[C@H](Cc1ccccc1)NC(=O)[C@@H](NC(=O)CNC(=O)[C@H](CCC(N)=O)NC(=O)C(C)(C)NC(=O)[C@@H](N)Cc1c[nH]cn1)[C@@H](C)O)C(=O)N[C@@H](CC(=O)O)C(=O)N[C@@H](C)C(=O)N[C@@H](CCCNC(=N)N)C(=O)N[C@@H](C)C(=O)N[C@@H](C)C(=O)N[C@@H](CCCCNC(=O)COCCOCCNC(=O)COCCOCCNC(=O)CC[C@H](NC(=O)CCCCCCCCCCCCCCCCC(=O)O)C(=O)O)C(=O)N[C@@H](CC(=O)O)C(=O)N[C@@H](Cc1ccccc1)C(=O)N[C@H](C(=O)N[C@@H](CCC(N)=O)C(=O)N[C@@H](Cc1c[nH]c2ccccc12)C(=O)N[C@@H](CC(C)C)C(=O)N[C@@H](CCS(C)(=O)=O)C(=O)N[C@@H](CC(=O)O)C(=O)N[C@H](C(N)=O)[C@@H](C)O)C(C)C [TP596] (H-H[Aib]QGTFLSDYSKYLDARAAK([AEEA-AEEA-γGlu-C18 diacid])DFVQWL[Met(O2)]DT-NH2; N-terminus assumed) | 9.46 | 0.2 | < 7.70 | > 8.30 | > 8.30

From patent publication US11566057B2, “Long-acting co-agonists of the glucagon and GLP-1 receptors” (Merck Sharp & Dohme Corp., priority 2017, dated 2023)
